Data on 1 compound can be found in US20100286200A1, “COMBINATION OF METFORMIN AND AN MTP INHIBITOR” (JANSSEN PHARMACEUTICA NV, priority 2008, published 2010).

Structures are written as SMILES.

For data set [1] the following is noted: cited from earlier work.
Data set [2] deals with subjects with type 2 diabetes mellitus undergoing metformin treatment. Nature of the data set: Proof-of-concept 12-week double-blind, randomized, placebo-controlled study of the MTP inhibitor in subjects on metformin treatment. The class given is in vivo, human. The text has this:
Proof-of-concept study of combinations of metformin and the MTP inhibitor (+)-phenyl-(4-{4-[(4′-trifluoromethyl-biphenyl-2-carbonyl)-amino]-phenyl}-piperidin-1-yl)-acetic acid methyl ester
Safety and efficacy of the MTP inhibitor (+)-phenyl-(4-{4-[(4′-trifluoromethyl-biphenyl-2-carbonyl)-amino]-phenyl}-piperidin-1-yl)-acetic acid methyl ester in the treatment of subjects with type 2 diabetes mellitus undergoing metformin treatment has been investigated. Three dosing regimens of the MTP inhibitor, 5-10-15 mg bid, were compared to placebo in a double-blind, randomized, parallel-group study design of 12 weeks wherein all subjects were following metformin treatment. All subjects remained on a calorically appropriate, low fat (≦30%) diet, being in accordance with the local practice guidelines for the treatment of type 2 diabetes.
Subjects randomized into the study had to have type 2 diabetes for at least 3 months and remained on a stable metformin monotherapy for at least 2 months. There were 88, 84, 91 and 89 patients randomized to placebo, 5 mg, 10 mg and 15 mg BID. Mean age was 55 years and there were slightly more males than females randomized into the study (males:females—54%:46%).
The mean baseline glycosylated hemoglobin (HbA1c) was 7.8±0.8% (mean±SD) and the mean plasma glucose was 9.1±1.80 mmol/L (mean±SD). The majority (68%) of subjects had HbA1c levels≦8%.
Mean weight at baseline was 94.9 kg and varied between 92.8 kg and 96.7 kg in different treatment groups, while the mean baseline BMI was 32.8 kg/m^2.

Where [3] appears, read: 5 mg bid, with metformin, week 12.
The mark [4] stands for this setting: 10 mg bid and 15 mg bid, combination with metformin.
Where [5] appears, read: 10 mg bid, with metformin, Week 12.
[6] abbreviates: 15 mg bid, with metformin, Week 12.

Consider `COC(=O)C(c1ccccc1)N1CCC(c2ccc(NC(=O)c3ccccc3-c3ccc(C(F)(F)F)cc3)cc2)CC1` (single isomer, unassigned; (+)) [(+)-phenyl-(4-{4-[(4′-trifluoromethyl-biphenyl-2-carbonyl)-amino]-phenyl}-piperidin-1-yl)-acetic acid methyl ester], for which, in data set [1], the “metabolism in the plasma” value is reported as “rapidly metabolised in the plasma” and the systemic plasma concentrations entry is listed as “very low systemic plasma concentrations”. Also, in data set [2] (5 mg bid, with metformin), the “mean body weight loss at Week 12” value is 1.71 kg, the “mean body weight loss at Week 12 (percent)” value came out at 1.0% and the “mean percentage change from baseline at week 12 in fasting plasma glucose (FPG)” value (from here on “mean percentage change from baseline”) is −2.3%. The “mean decrease in HbA1c (%), change from baseline at Week 12” value (shortened to “mean decrease in HbA1c (%), change”) in data set [2] (5 mg bid, with metformin, Week 12, baseline HbA1c 7.8±0.8%) is −0.46%. Also, in data set [2] (setting [3]), the “HbA1c least square mean (mixed model) difference from placebo” value came out at 0.19 and the “absolute change from baseline in FPG (decrease)” value (from here on “absolute change … (decrease)”) was found to be 0.37 mmol/L. For the same compound, in data set [2] (setting [4]), the “LDL levels (fasting plasma lipids)” value is listed as “Beneficial effects” and the “ratio of LDL over HDL (fasting plasma lipids)” value is “Beneficial effects”. Moreover, in data set [2] (10 mg bid, with metformin), the “mean body weight loss at Week 12” value was 2.80 kg, the “mean body weight loss at Week 12 (percent)” value is recorded as 2.9% and the “mean percentage change from baseline” value is −6.1%. Besides, in data set [2] (setting [5]), the “HbA1c least square mean (mixed model) difference from placebo” value is listed as 0.28; the “absolute change … (decrease)” value is 0.063 mmol/L; the “mean decrease in HbA1c (%), change” value is recorded as −0.55%. Besides, in data set [2] (15 mg bid, with metformin), the “mean body weight loss at Week 12” value turned out to be 3.37 kg, the “mean body weight loss at Week 12 (percent)” value worked out at 3.6% and the “mean percentage change from baseline” value is −6.0%. In addition, in data set [2] (setting [6]), the “HbA1c least square mean (mixed model) difference from placebo” value turned out to be 0.28; the “absolute change … (decrease)” value is given as 0.63 mmol/L; the “mean decrease in HbA1c (%), change” value was −0.54%. Also, the “change from baseline at Week 12 of HbA1c levels vs. placebo (mixed model analysis)” value in data set [2] (all active treatment arms (5, 10, 15 mg bid), with metformin) is listed as “statistically significant decrease vs. placebo”.
